Structures can show the parent of a compound that is named as a salt.
SMILES	melting point
CCOC(=O)c1cc(N)n(-c2cc(C(=O)Nc3cc(C(C)(C)C)cc(NS(C)(=O)=O)c3OC)ccc2C)n1 (as salt: TFA) [Example 1, 5-amino-1-[5-(5-tert-butyl-3-methanesulfonylamino-2-methoxy-phenylcarbamoyl)-2-methyl-phenyl]-1H-pyrazole-3-carboxylic acid ethyl ester]	104 to 111 °C (dec.)
CCOC(=O)c1cnn(-c2cc(C(=O)Nc3cc(C(C)(C)C)cc(NS(C)(=O)=O)c3OC)ccc2C)c1 [Example 2, 1-[5-(5-tert-butyl-3-methanesulfonylamino-2-methoxy-phenylcarbamoyl)-2-methyl-phenyl]-1H-pyrazole-4-carboxylic acid ethyl ester]	125 to 130 °C
COc1c(NC(=O)c2ccc(C)c(-n3cc(C(=O)NCc4cccnc4)cn3)c2)cc(C(C)(C)C)cc1NS(C)(=O)=O [Example 4, 1-[5-(5-tert-Butyl-3-methanesulfonylamino-2-methoxy-phenylcarbamoyl)-2-methyl-phenyl]-1H-pyrazole-4-carboxylic acid (pyridin-3-ylmethyl)-amide]	127 to 133 °C

Source: patent publication US7485657B2, “Anti-cytokine heterocyclic compounds” (Boehringer Ingelheim Pharmaceuticals, Inc., priority 2004, dated 2009)
